The values below come from US9834541B2, “2-aminopyridine compounds” (Merck Patent GmbH, priority 2012, dated 2017).

Bounds are passed on as bounds.

Data set [1] in a line: CLint (intrinsic clearance) assay, liver microsomal incubation. The class given is in vitro ADME, human. The note with it: for microsomal CLint at 0.8 μM: liver microsomes, pH 7.4, human hepatic microsomes, 0.5 mg/mL protein, class symbols. In a few lines: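 Human liver microsomes (0.5 mg/mL protein) in 0.1 M potassium phosphate pH 7.4 with 1 mM MgCl2 were incubated at 37 °C with NADPH and compound (diluted to 0.8 μM), with no-cofactor controls. Samples were acetonitrile-quenched at 0–30 min. CLint (μL/min/mg protein) = k·1000/protein concentration, from the LC-MS/MS peak-area decline slope.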

Data set [2] deals with Wnt pathway. Nature of the data set: Cellular assay for Wnt pathway activity, LS174T-shl-fLuc clone 5 (LS174T-L5) luciferase reporter assay. In kind it is cell-based. Conditions: Homo sapiens; LS174T TCF luciferase reporter cells, 24 hours incubation. In a few lines: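 LS174T human colon cancer cells stably carrying a 16×TCF/LEF-driven short-half-life firefly luciferase reporter were treated with compounds at 30 μM to 1 nM for 24 hours. Luciferase luminescence normalized to vehicle control; IC50 from curve fitting.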

The subject of data set [3] is Wnt pathway. Conditions: see Table A on page 93 of WO 2010/041054; cited from earlier work.

With `O=C1NCCC12CCN(c1c(Cl)cncc1-c1ccccc1)CC2` [Compound E60, 8-(3-Chloro-5-phenyl-pyridin-4-yl)-2,8-diaza-spiro[4.5]decan-1-one, reference compound], the microsomal CLint at 0.8 μM in data set [1] was ≥ 150 µL/min/mg. For the same molecule, the “human hepatic microsomal intrinsic clearance (CLint), in words” value in data set [1] (statement in the related-art section) is “high”. Further, half-maximal inhibition in the data set with Wnt pathway [2] (IC50) required 230 nM. Also, the “inhibitory activity, in words” value with Wnt pathway [3] was “promising”.

In the case of `CN1c2ccc(-c3cnc(N)c(Cl)c3N3CC[C@@H](C#N)[C@H](O)C3)cc2CS1(=O)=O` [Compound 66, (3S,4S)-2′-Amino-3′-chloro-3-hydroxy-5′-(1-methyl-2,2-dioxo-2,3-dihydro-1H-2I6-benzo[c]isothiazol-5-yl)-3,4,5,6-tetrahydro-2H-[1,4′] bipyridinyl-4-carbonitrile], the microsomal CLint at 0.8 μM in data set [1] was 10 to 50 µL/min/mg. The molecule also showed an IC50 in the data set with Wnt pathway [2] of 403 nM.

Regarding `Nc1ncc(-c2ccc(-c3cnn(CCO)c3)cc2)c(N2CCC3(CC2)NC(=O)NC3=O)c1Cl` [Compound 6, 8-(2-Amino-3-chloro-5-{4-[1-(2-hydroxy-ethyl)-1H-pyrazol-4-yl]-phenyl}-pyridin-4-yl)-1,3,8-triaza-spiro[4.5] decane-2,4-dione], the microsomal CLint at 0.8 μM in data set [1] lay in the range of 10 to 50 µL/min/mg. In the data set with Wnt pathway [2], this molecule displayed an IC50 of 390 nM.

On to `Nc1ncc(-c2ccc3cc[nH]c3c2)c(N2CCC3(CC2)CNC(=O)O3)c1Cl` [Compound 29, 8-[2-Amino-3-chloro-5-(1H-indol-6-yl)-pyridin-4-yl]-1-oxa-3,8-diaza-spiro[4.5] decan-2-one], for which, in data set [1], the microsomal CLint at 0.8 μM was in the range of 100 to 150 µL/min/mg. In the data set on Wnt pathway [2], this molecule returned an IC50 of 30 nM.

As to `CC(C)(O)Cn1cc(-c2ccc(-c3cnc(N)c(Cl)c3N3CCC4(CCNC4=O)CC3)cc2)cn1` [Compound 67, 8-(2-Amino-3-chloro-5-{4-[1-(2-hydroxy-2-methyl-propyl)-1H-pyrazol-4-yl]-phenyl}-pyridin-4-yl)-2,8-diaza-spiro[4.5] decan-1-one], the microsomal CLint at 0.8 μM in data set [1] was in the range of 10 to 50 µL/min/mg. This molecule also came in with an IC50 in the data set on Wnt pathway [2] of 49 nM.

Regarding `Cn1ncc2ccc(-c3cnc(N)c(Cl)c3N3CCC4(CCNC4=O)CC3)cc21` [Compound 23, 8-[2-Amino-3-chloro-5-(1-methyl-1H-indazol-6-yl)-pyridin-4-yl]-2,8-diaza-spiro[4.5] decan-1-one], the intrinsic clearance (microsomal CLint) at 0.8 μM in data set [1] lay within 10 to 50 µL/min/mg. The same molecule had an IC50 in the data set with Wnt pathway [2] of 21 nM.

On to `Cn1cc(-c2ccc(-c3cnc(N)c(C(F)(F)F)c3N3CCC4(CC3)CNC(=O)O4)cc2)cn1` [Compound 41, 8-{2-Amino-5-[4-(1-methyl-1H-pyrazol-4-yl)-phenyl]-3-trifluoromethyl-pyridin-4-yl}-1-oxa-3,8-diaza-spiro[4.5] decan-2-one], for which the microsomal CLint at 0.8 μM in data set [1] was < 10 µL/min/mg. The same molecule yielded an IC50 in the data set on Wnt pathway [2] of 75 nM.

Take `CC(C)n1cc(-c2ccc(-c3cnc(N)c(Cl)c3N3CCC4(CCNC4=O)CC3)cc2)cn1` [Compound 69, 8-{2-Amino-3-chloro-5-[4-(1-isopropyl-1H-pyrazol-4-yl)-phenyl]-pyridin-4-yl}-2,8-diaza-spiro[4.5] decan-1-one]: in data set [1], the microsomal CLint at 0.8 μM was 50 to 100 µL/min/mg. For the same molecule, the IC50 in the data set on Wnt pathway [2] turned out to be 52 nM.

Regarding `Cn1cc(-c2ccc(-c3cnc(N)c(Cl)c3N3CCC4(CC3)C(=O)Nc3ccccc34)cc2)cn1` [Compound 11, 1′-(2-Amino-3-chloro-5-(4-(1-methyl-1H-pyrazol-4-yl)phenyl)pyridin-4-yl)spiro[indoline-3,4′-piperidin]-2-one], the microsomal CLint at 0.8 μM in data set [1] lay within 10 to 50 µL/min/mg. In addition, in the data set with Wnt pathway [2], the IC50 amounted to 3 nM.

`Nc1ccc(-c2ccc(-c3cnc(N)c(Cl)c3N3CCC4(CCNC4=O)CC3)cc2)cn1` [Compound 28, 8-{2-Amino-5-[4-(6-amino-pyridin-3-yl)-phenyl]-3-chloro-pyridin-4-yl}-2,8-diaza-spiro[4.5] decan-1-one]: the microsomal CLint at 0.8 μM in data set [1] was ≥ 150 µL/min/mg. For the same molecule, in the data set with Wnt pathway [2], the IC50 was found to be 12 nM.

`Nc1ncc(-c2ccc3c(N)n[nH]c3c2)c(N2CCC3(CC2)CC(=O)NC3=O)c1Cl` [Compound 12, 8-[2-Amino-5-(3-amino-1H-indazol-6-yl)-3-chloro-pyridin-4-yl]-2,8-diaza-spiro[4.5] decane-1,3-dione]: the microsomal CLint at 0.8 μM in data set [1] fell in the range of 10 to 50 µL/min/mg. The molecule further returned an IC50 in the data set with Wnt pathway [2] of 31 nM.

`N#CC1CCN(c2c(-c3ccc(N4CCOCC4)cc3)cnc(N)c2Cl)CC1` [Compound 27, 1-(2-Amino-3-chloro-5-(4-morpholinophenyl)pyridin-4-yl)piperidine-4-carbonitrile]: in data set [1], the microsomal CLint at 0.8 μM is 100 to 150 µL/min/mg. In the data set on Wnt pathway [2], this molecule had an IC50 of 34 nM.
